Test results taken from US8999664B2, “Method of improving salmon meat color” (JX Nippon Oil & Energy Corporation, priority 2006, dated 2015).

Assays:
[1] = system: king salmons (Oncorhynchus tshawytscha); test: Cultivation of king salmon with carotenoid feed: fish weight and flesh color by spectrometer; format: in vivo
Text: The flesh color of a landed salmon can be quantified with the L*a*b* color system by measuring the color using a spectrometer. L* represents the luminance, a* represents the chroma red, and b* represents chroma yellow. A higher value of a*/b* represents a color more reddish than orangish, and a lower value of a*/b* represents a color more orangish than reddish. […] 100 king salmons (Oncorhynchus tshawytscha) each weighing about 200 g were cultivated as a test division of being fed with the above-described fermented product, and another 100 king salmons each weighing about 200 g were cultivated as a test division of being fed with the above-described synthetic product. The salmons were fed in satiation in a marine fish pen for 3 months. After the 3 months of cultivating, 15 fish of each test division were sampled and weighed. […] The fish were immediately killed by cutting medulla. […] After the measurement, the fish flesh was frozen for preservation for 1 month. After being thawed, the fish flesh of the fish of each test division was analyzed in terms of the content of each carotenoid compound.

[2] = system: silver salmons (Oncorhynchus kisutch); test: Cultivation of silver salmon with carotenoid feed: fish weight and flesh color by spectrometer; format: in vivo
Text: The flesh color of a landed salmon can be quantified with the L*a*b* color system by measuring the color using a spectrometer. L* represents the luminance, a* represents the chroma red, and b* represents chroma yellow. A higher value of a*/b* represents a color more reddish than orangish, and a lower value of a*/b* represents a color more orangish than reddish. […] 300 silver salmons (Oncorhynchus kisutch) each weighing about 200 g were cultivated as a test division of being fed with the above-described fermented product, and another 300 silver salmons each weighing about 200 g were cultivated as a test division of being fed with the above-described synthetic product. The salmons were fed in satiation in a marine fish pen for 6 months. After the 6 months of cultivating, 10 fish of each test division were weighed. […] The fish were immediately killed by cutting medulla and frozen for preservation. After being thawed, the fish flesh was milled by a coffee mill, and a part thereof was put into a polyethylene bag to measure the color tone thereof by a spectrometer CM-508i (Minolta). […] From a part of the milled fish flesh, the carotenoid colorant was extracted, and analyzed in terms of the content of each carotenoid compound by HPLC.

[3] = system: Atlantic salmons (Salmo salar); test: Cultivation of Atlantic salmon with carotenoid feed: fish weight and flesh color by spectrometer; format: in vivo
Text: The flesh color of a landed salmon can be quantified with the L*a*b* color system by measuring the color using a spectrometer. L* represents the luminance, a* represents the chroma red, and b* represents chroma yellow. A higher value of a*/b* represents a color more reddish than orangish, and a lower value of a*/b* represents a color more orangish than reddish. […] 400 Atlantic salmons (Salmo salar) each weighing about 300 g were cultivated as a test division of being fed with the above-described fermented product, and another 400 Atlantic salmons each weighing about 300 g were cultivated as a test division of being fed with the above-described synthetic product. The salmons were fed in satiation in a marine fish pen for 12 months. After the 12 months of cultivating, 20 fish of each test division were landed and weighed. […] The fish were immediately killed by cutting medulla, and the fish flesh was measured in terms of the color tone by a spectrometer. […] After the measurement, the fish flesh was frozen for preservation for 1 month. After being thawed, the fish flesh of the 20 fish of each test division was analyzed in terms of the content of each carotenoid compound.

[4] = system: rainbow trouts (Oncorhynchus mykiss); test: Cultivation of rainbow trout with carotenoid feed: fish weight and flesh color by spectrometer; format: in vivo
Text: The flesh color of a landed salmon can be quantified with the L*a*b* color system by measuring the color using a spectrometer. L* represents the luminance, a* represents the chroma red, and b* represents chroma yellow. A higher value of a*/b* represents a color more reddish than orangish, and a lower value of a*/b* represents a color more orangish than reddish. […] 50 rainbow trouts (Oncorhynchus mykiss) each weighing about 100 g were cultivated in a water tank as a test division of being fed with the above-described fermented product, and another 50 rainbow trouts each weighing about 100 g were cultivated in a water tank as a test division of being fed with the above-described synthetic product. The trouts of each test division were fed in satiation in fresh water for 3 months. After the 3 months of cultivating, 12 fish of each test division were weighed. […] The fish were immediately killed by cutting medulla. […] After the measurement, the fish flesh was frozen for preservation. After being thawed, the fish flesh of the 12 fish of each test division was analyzed in terms of the content of each carotenoid compound.

[5] = Carotenoid content in fish flesh of rainbow trout by HPLC; format: in vivo, Oncorhynchus mykiss; conditions: 3 months; for Ratio to astaxanthin: rainbow trout fish flesh; for Content in fish flesh: rainbow trout, average of 12 fish
Experimental: In the examples, the quantification of the carotenoid colorant was performed using high performance liquid chromatography (HPLC). Two columns of Wakosil-II 5 SIL-100 φ4.6×250 mm (produced by Wako Pure Chemical Industries, Ltd.) were connected to each other. An n-hexane:tetrahydrofuran:methanol (40:20:1) mixed solution was used as a mobile phase. A constant room temperature and a flow rate of 1.0 ml/min were used. The detection was performed at a wavelength of 470 nm. The feed or fish flesh was milled, and then the colorant was extracted with a tetrahydrofuran:methanol (20:1) mixed solution. The colorant was appropriately diluted with the mobile phase and analyzed by HPLC. 50 rainbow trouts (Oncorhynchus mykiss) each weighing about 100 g were cultivated in a water tank as a test division of being fed with the above-described fermented product, and another 50 rainbow trouts each weighing about 100 g were cultivated in a water tank as a test division of being fed with the above-described synthetic product. The trouts of each test division were fed in satiation in fresh water for 3 months. After the 3 months of cultivating, 12 fish of each test division were weighed. […] The fish were immediately killed by cutting medulla. […] After the measurement, the fish flesh was frozen for preservation. After being thawed, the fish flesh of the 12 fish of each test division was analyzed in terms of the content of each carotenoid compound.

[6] = Carotenoid content in fish flesh of Atlantic salmon by HPLC; format: in vivo, Salmo salar; conditions: 12 months; for Ratio to astaxanthin: Atlantic salmon fish flesh; for Content in fish flesh: Atlantic salmon, flesh frozen 1 month, average of 20 fish
Experimental: In the examples, the quantification of the carotenoid colorant was performed using high performance liquid chromatography (HPLC). Two columns of Wakosil-II 5 SIL-100 φ4.6×250 mm (produced by Wako Pure Chemical Industries, Ltd.) were connected to each other. An n-hexane:tetrahydrofuran:methanol (40:20:1) mixed solution was used as a mobile phase. A constant room temperature and a flow rate of 1.0 ml/min were used. The detection was performed at a wavelength of 470 nm. The feed or fish flesh was milled, and then the colorant was extracted with a tetrahydrofuran:methanol (20:1) mixed solution. The colorant was appropriately diluted with the mobile phase and analyzed by HPLC. 400 Atlantic salmons (Salmo salar) each weighing about 300 g were cultivated as a test division of being fed with the above-described fermented product, and another 400 Atlantic salmons each weighing about 300 g were cultivated as a test division of being fed with the above-described synthetic product. The salmons were fed in satiation in a marine fish pen for 12 months. After the 12 months of cultivating, 20 fish of each test division were landed and weighed. […] The fish were immediately killed by cutting medulla, and the fish flesh was measured in terms of the color tone by a spectrometer. […] After the measurement, the fish flesh was frozen for preservation for 1 month. After being thawed, the fish flesh of the 20 fish of each test division was analyzed in terms of the content of each carotenoid compound.

[7] = Carotenoid content in fish flesh of king salmon by HPLC; format: in vivo, Oncorhynchus tshawytscha; conditions: 3 months; for Ratio to astaxanthin: king salmon fish flesh; for Content in fish flesh: king salmon, flesh frozen 1 month, average of 15 fish
Experimental: In the examples, the quantification of the carotenoid colorant was performed using high performance liquid chromatography (HPLC). Two columns of Wakosil-II 5 SIL-100 φ4.6×250 mm (produced by Wako Pure Chemical Industries, Ltd.) were connected to each other. An n-hexane:tetrahydrofuran:methanol (40:20:1) mixed solution was used as a mobile phase. A constant room temperature and a flow rate of 1.0 ml/min were used. The detection was performed at a wavelength of 470 nm. The feed or fish flesh was milled, and then the colorant was extracted with a tetrahydrofuran:methanol (20:1) mixed solution. The colorant was appropriately diluted with the mobile phase and analyzed by HPLC. 100 king salmons (Oncorhynchus tshawytscha) each weighing about 200 g were cultivated as a test division of being fed with the above-described fermented product, and another 100 king salmons each weighing about 200 g were cultivated as a test division of being fed with the above-described synthetic product. The salmons were fed in satiation in a marine fish pen for 3 months. After the 3 months of cultivating, 15 fish of each test division were sampled and weighed. […] The fish were immediately killed by cutting medulla. […] After the measurement, the fish flesh was frozen for preservation for 1 month. After being thawed, the fish flesh of the fish of each test division was analyzed in terms of the content of each carotenoid compound.

[8] = Carotenoid content in fish flesh of silver salmon by HPLC; format: in vivo, Oncorhynchus kisutch; conditions: 6 months; for Ratio to astaxanthin: silver salmon fish flesh; for Content in fish flesh: silver salmon, average of 10 fish
Experimental: In the examples, the quantification of the carotenoid colorant was performed using high performance liquid chromatography (HPLC). Two columns of Wakosil-II 5 SIL-100 φ4.6×250 mm (produced by Wako Pure Chemical Industries, Ltd.) were connected to each other. An n-hexane:tetrahydrofuran:methanol (40:20:1) mixed solution was used as a mobile phase. A constant room temperature and a flow rate of 1.0 ml/min were used. The detection was performed at a wavelength of 470 nm. The feed or fish flesh was milled, and then the colorant was extracted with a tetrahydrofuran:methanol (20:1) mixed solution. The colorant was appropriately diluted with the mobile phase and analyzed by HPLC. 300 silver salmons (Oncorhynchus kisutch) each weighing about 200 g were cultivated as a test division of being fed with the above-described fermented product, and another 300 silver salmons each weighing about 200 g were cultivated as a test division of being fed with the above-described synthetic product. The salmons were fed in satiation in a marine fish pen for 6 months. After the 6 months of cultivating, 10 fish of each test division were weighed. […] The fish were immediately killed by cutting medulla and frozen for preservation. After being thawed, the fish flesh was milled by a coffee mill, and a part thereof was put into a polyethylene bag to measure the color tone thereof by a spectrometer CM-508i (Minolta). […] From a part of the milled fish flesh, the carotenoid colorant was extracted, and analyzed in terms of the content of each carotenoid compound by HPLC.

[9] = flesh color by spectrometer, 3 months, average of 15 fish
[10] = milled thawed fish flesh, spectrometer CM-508i, 6 months, average of 10 fish
[11] = flesh color tone by spectrometer, 12 months, average of 20 fish
[12] = flesh color by spectrometer, 3 months, average of 12 fish

CC1=C(/C=C/C(C)=C/C=C/C(C)=C/C=C/C=C(C)/C=C/C=C(C)/C=C/C2=C(C)C(=O)[C@@H](O)CC2(C)C)C(C)(C)C[C@H](O)C1=O [Synthetic product, astaxanthin]
Fish flesh color exhibited ([1]; 3 months of cultivating): reddish orange color close to a red color
L* value (luminance) [1, 9]: 50.8
a* value (chroma red) [1, 9]: 23.7
a*/b* [1, 9]: 0.93
b* value (chroma yellow) [1, 9]: 25.5
Fish flesh color exhibited ([2]; 6 months of cultivating): unnatural red color
L* value (luminance) [2, 10]: 55.6
a* value (chroma red) [2, 10]: 26.0
b* value (chroma yellow) [2, 10]: 26.2
a*/b* ([2]; milled thawed fish flesh, spectrometer, 6 months, average of 10 fish): 0.99
Fish flesh color exhibited ([3]; 12 months of cultivating): reddish orange color with a high level of chroma red
L* value (luminance) [3, 11]: 50.0
a* value (chroma red) [3, 11]: 26.2
a*/b* [3, 11]: 0.94
b* value (chroma yellow) [3, 11]: 27.9
Fish flesh color exhibited ([4]; 3 months of cultivating): reddish orange color close to a red color
L* value (luminance) [4, 12]: 41.8
a* value (chroma red) [4, 12]: 9.1
a*/b* [4, 12]: 0.66
b* value (chroma yellow) [4, 12]: 13.8

CC1=C(/C=C/C(C)=C/C=C/C(C)=C/C=C/C=C(C)/C=C/C=C(C)/C=C/C2=C(C)CCCC2(C)C)C(C)(C)CCC1 [β-carotin]
Ratio to astaxanthin ([5]; Fermented product division): 0.6 or less %
Content in fish flesh ([5]; Fermented product division): 0.02 or less mg/kg
Content in fish flesh ([5]; Synthetic product division): 0.02 or less mg/kg
Ratio to astaxanthin ([6]; Fermented product division): 0.5 or less %
Content in fish flesh ([6]; Fermented product division): 0.02 or less mg/kg
Content in fish flesh ([6]; Synthetic product division): 0.02 or less mg/kg
Ratio to astaxanthin ([7]; Fermented product division): 0.5 or less %
Content in fish flesh ([7]; Fermented product division): 0.02 or less mg/kg
Content in fish flesh ([7]; Synthetic product division): 0.02 or less mg/kg
Ratio to astaxanthin ([8]; Fermented product division): 0.2 or less %
Content in fish flesh ([8]; Fermented product division): 0.02 or less mg/kg
Content in fish flesh ([8]; Synthetic product division): 0.02 or less mg/kg

Asteroidenone
Ratio to astaxanthin ([5]; Fermented product division): 2.9%
Content in fish flesh ([5]; Fermented product division): 0.1 mg/kg
Content in fish flesh ([5]; Synthetic product division): 0.02 or less mg/kg
Ratio to astaxanthin ([6]; Fermented product division): 2.4%
Content in fish flesh ([6]; Fermented product division): 0.1 mg/kg
Content in fish flesh ([6]; Synthetic product division): 0.02 or less mg/kg
Ratio to astaxanthin ([7]; Fermented product division): 2.2%
Content in fish flesh ([7]; Fermented product division): 0.1 mg/kg
Content in fish flesh ([7]; Synthetic product division): 0.02 or less mg/kg
Ratio to astaxanthin ([8]; Fermented product division): 1.9%
Content in fish flesh ([8]; Fermented product division): 0.2 mg/kg
Content in fish flesh ([8]; Synthetic product division): 0.02 or less mg/kg
